Assay results taken from US6737383B1, “Herbicidal oxadiazolidines” (priority 1999, dated 2004).

Columns and labels:
[1] = tested on: bedstraw; test: Test B pre/postemergence bedstraw; type: in vivo, Galium aparine; details: Preemergence
Method in brief: (§1)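 Herbicidal effect was estimated by eye on a ten-point control scale after plants spent twelve to sixteen days in a greenhouse following soil or foliar treatment. Foliar sprays targeted plants at one to four leaves; all doses were formulated in a non-phytotoxic solvent with surfactant.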

[2] = tested on: blackgrass; test: Test B pre/postemergence blackgrass; type: in vivo, Alopecurus myosuroides
Method in brief: as §1

[3] = tested on: surinam grass; test: Test B pre/postemergence surinam grass; type: in vivo, Brachiaria decumbens
Method in brief: as §1

[4] = tested on: cocklebur; test: Test B pre/postemergence cocklebur; type: in vivo, Xanthium strumarium
Method in brief: as §1

[5] = tested on: corn; test: Test B pre/postemergence corn; type: in vivo, Zea mays
Method in brief: as §1

[6] = tested on: morningglory; test: Test B pre/postemergence morningglory; type: in vivo, Ipomoea hederacea
Method in brief: as §1

[7] = tested on: pigweed; test: Test B pre/postemergence pigweed; type: in vivo, Amaranthus retroflexus
Method in brief: as §1

[8] = tested on: rape; test: Test B pre/postemergence rape; type: in vivo, Brassica napus
Method in brief: as §1

[9] = tested on: soybean; test: Test B pre/postemergence soybean; type: in vivo, Glycine max
Method in brief: as §1

[10] = tested on: sugar beet; test: Test B pre/postemergence sugar beet; type: in vivo, Beta vulgaris
Method in brief: as §1

[11] = tested on: velvetleaf; test: Test B pre/postemergence velvetleaf; type: in vivo, Abutilon theophrasti
Method in brief: as §1

[12] = tested on: wild oat; test: Test B pre/postemergence wild oat; type: in vivo, Avena fatua
Method in brief: as §1

[13] = tested on: purple nutsedge; test: Test B pre/postemergence purple nutsedge; type: in vivo, Cyperus rotundus
Method in brief: as §1

[14] = tested on: rice; test: Test B flood test rice; type: in vivo, Oryza sativa
Method in brief: (§2)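 Read-out is a visual response score from 0 (no effect) to 10 (complete control), assigned by comparison with untreated controls. Treatment was applied at the 2-leaf stage, and plants stayed in the greenhouse for twelve to sixteen days before scoring.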

[15] = tested on: smallflower flatsedge; test: Test B flood test smallflower flatsedge; type: in vivo, Cyperus difformis
Method in brief: as §2

[16] = tested on: bamyardgrass; test: Test B flood test barnyardgrass; type: in vivo, Echinochloa crus-galli
Method in brief: as §2

[17] = Postemergence, Rate 125 g/ha, scale 0 to 10, 0 is no effect, 10 is complete control
[18] = Postemergence, Rate 250 g/ha, scale 0 to 10, 0 is no effect, 10 is complete control
[19] = Postemergence, Rate 500 g/ha, scale of 0 to 10 where 0 is no effect and 10 is complete control
[20] = Preemergence, Rate 62 g/ha, scale 0 to 10 (0 no effect, 10 complete control)
[21] = Preemergence, Rate 125 g/ha, scale of 0 to 10 where 0 is no effect and 10 is complete control
[22] = Preemergence, Rate 250 g/ha, scale of 0 to 10 where 0 is no effect and 10 is complete control
[23] = Preemergence, Rate 500 g/ha, scale 0 to 10, 0 is no effect, 10 is complete control
[24] = Rate 62 g/ha, Postemergence, scale of 0 to 10 where 0 is no effect and 10 is complete control
[25] = Preemergence, Rate 250 g/ha, scale 0 to 10, 0 is no effect, 10 is complete control
[26] = Rate 62 g/ha, flood test species, Pre-emergence, visual evaluation after twelve to sixteen days
[27] = Rate 125 g/ha, under heading Pre-emergence, flood test species, visual evaluation after twelve to sixteen days
[28] = Rate 250 g/ha, Pre-emergence (flood test species), scale 0 to 10, 0 is no effect, 10 is complete control
[29] = Rate 500 g/ha, Pre-emergence, flood test species, scale 0 to 10 (0 no effect, 10 complete control)

C=CC[Si](C)(C)Cn1c(=O)on(C(=O)N(c2ccc(Cl)cc2)C(C)C)c1=O [Compound 414]
3: Blackgrass plant response rating [2, 22] | Soybean plant response rating [9, 19]
0: Plant response rating, Bedstraw ([1]; Rate 62 g/ha, scale 0 to 10 (0 no effect, 10 complete control)) | Plant response rating, Bedstraw ([1]; Rate 125 g/ha, scale of 0 to 10 where 0 is no effect and 10 is complete control) | Bedstraw plant response rating ([1]; Rate 250 g/ha, scale of 0 to 10 where 0 is no effect and 10 is complete control) | Bedstraw plant response rating ([1]; Rate 500 g/ha, scale 0 to 10, 0 is no effect, 10 is complete control) | Plant response rating, Blackgrass [2, 20] | Plant response rating, Blackgrass [2, 21] | Blackgrass plant response rating [2, 24] | Plant response rating, B. signalgrass [3, 17] | Plant response rating, B. signalgrass [3, 20] | Plant response rating, B. signalgrass [3, 21] | B. signalgrass plant response rating [3, 24] | Plant response rating, Cocklebur [4, 17] | Plant response rating, Cocklebur [4, 18] | Cocklebur plant response rating [4, 19] | Plant response rating, Cocklebur [4, 20] | Plant response rating, Cocklebur [4, 21] | Cocklebur plant response rating [4, 25] | Cocklebur plant response rating [4, 23] | Cocklebur plant response rating [4, 24] | Plant response rating, Corn [5, 17] | Plant response rating, Corn [5, 18] | Corn plant response rating [5, 19] | Plant response rating, Corn [5, 20] | Plant response rating, Corn [5, 21] | Corn plant response rating [5, 25] | Corn plant response rating [5, 23] | Corn plant response rating [5, 24] | Plant response rating, Morningglory [6, 20] | Plant response rating, Morningglory [6, 21] | Morningglory plant response rating [6, 25] | Morningglory plant response rating [6, 23] | Plant response rating, Redroot pigweed [7, 18] | Redroot pigweed plant response rating [7, 19] | Plant response rating, Redroot pigweed [7, 20] | Plant response rating, Redroot pigweed [7, 21] | Redroot pigweed plant response rating [7, 25] | Redroot pigweed plant response rating [7, 23] | Plant response rating, Rape [8, 18] | Rape plant response rating [8, 19] | Plant response rating, Rape [8, 20] | Plant response rating, Rape [8, 21] | Rape plant response rating [8, 25] | Rape plant response rating [8, 23] | Plant response rating, Soybean [9, 20] | Plant response rating, Soybean [9, 21] | Soybean plant response rating [9, 25] | Soybean plant response rating [9, 23] | Plant response rating, Sugarbeets [10, 18] | Sugarbeets plant response rating [10, 19] | Plant response rating, Sugarbeets [10, 20] | Plant response rating, Sugarbeets [10, 21] | Sugarbeets plant response rating [10, 25] | Sugarbeets plant response rating [10, 23] | Plant response rating, Velvetleaf [11, 18] | Velvetleaf plant response rating [11, 19] | Plant response rating, Velvetleaf [11, 20] | Plant response rating, Velvetleaf [11, 21] | Velvetleaf plant response rating [11, 25] | Velvetleaf plant response rating [11, 23] | Plant response rating, Wild oats [12, 20] | Plant response rating, Wild oats [12, 21] | Plant response rating, Nutsedge [13, 18] | Nutsedge plant response rating [13, 19] | Plant response rating, Nutsedge [13, 20] | Plant response rating, Nutsedge [13, 21] | Nutsedge plant response rating [13, 25] | Plant response rating, Rice (0 to 10 scale, 0 is no effect, 10 is complete control) [14, 26] | Rice plant response rating (0 to 10 scale, 0 is no effect, 10 is complete control) [14, 27] | Rice plant response rating [14, 28] | Rice plant response rating [14, 29] | Plant response rating, S. Flatsedge (0 to 10 scale, 0 is no effect, 10 is complete control) [15, 26] | S. Flatsedge plant response rating (0 to 10 scale, 0 is no effect, 10 is complete control) [15, 27] | S. Flatsedge plant response rating [15, 28] | S. Flatsedge plant response rating [15, 29] | Plant response rating, Barnyardgrass (0 to 10 scale, 0 is no effect, 10 is complete control) [16, 26] | Barnyardgrass plant response rating (0 to 10 scale, 0 is no effect, 10 is complete control) [16, 27] | Barnyardgrass plant response rating [16, 28] | Barnyardgrass plant response rating [16, 29]
1: Plant response rating, B. signalgrass [3, 18] | B. signalgrass plant response rating [3, 22]
7: Blackgrass plant response rating [2, 19] | Plant response rating, Morningglory [6, 18] | Wild oats plant response rating [12, 23]
6: B. signalgrass plant response rating [3, 19]
8: Morningglory plant response rating [6, 19]
2: Plant response rating, Blackgrass [2, 17] | Plant response rating, Soybean [9, 18] | Wild oats plant response rating [12, 19] | Wild oats plant response rating [12, 25]
5: Plant response rating, Blackgrass [2, 18] | B. signalgrass plant response rating ([3]; Preemergence, Rate 500 g/ha, scale of 0 to 10 where 0 is no effect and 10 is complete control)
10: Blackgrass plant response rating [2, 23]
